For one test, the target named is T1, PDGF-Ra (Homo sapiens, UniProt P16234).
T1 construct: host or cells: G-292 human osteosarcoma cells
The test is described as follows: Inhibitory activity against PDGF-Ra phosphorylation by PDGF-AA stimulation using G292. Type of test: cell-based. As to conditions: for IC50: > means inhibition at indicated concentration not more than 50%, < and << not less than 50%, read-out: PDGF (E) IC50; for inhibition at 0.1 µM: G292, figure in parentheses in >100( ), at 100 nM, read-out: PDGF (E) inhibition (%) at 100 nM. The method in brief:
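Phospho-PDGF-Ra ELISA: capture with PY-20 antiphosphotyrosine, detection with anti-PDGF-Ra and peroxidase secondary, read at 450 nm. Lysates came from G-292 osteosarcoma cells starved in 0.1% FBS, compound-treated 1 hr at 37° C, and stimulated with 50 ng/ml PDGF-AA for 5 min.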

The target in a further test is T2, c-kit (Homo sapiens, UniProt P10721).
T2 construct: MO7e (human megakaryocytic leukemia cell line) which had been arrested for 20 hr; endogenous in cells; host or cells: MO7e human megakaryocytic leukemia cell line
The test is described as follows: Inhibitory activity against c-kit autophosphorylation (MO7e cells, h-SCF). Type of test: cell-based. The conditions noted are these: for IC50: h-SCF stimulation; for inhibition at 1 µM: Mo7e, figure in parentheses in −( ), at 1000 nM. An outline of the steps:
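Phospho-c-kit ELISA: plate-bound PY-20 anti-phosphotyrosine captures lysate, anti-c-kit plus peroxidase-labelled secondary antibody detect, read at 450 nm. Lysates come from 20 hr-arrested MO7e cells given compound for 1 hr before a 5 min 50 ng/ml h-SCF stimulus.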

Where [1] appears, read: MO7e cells, read-out: c-kit IC50.

Read-outs that look alike come from different tables or passages of the source.

Experimental findings from patent publication US7135466B2 (Kirin Beer Kabushiki Kaisha, priority 1999, dated 2006) are described below.

T1 sequence (P16234 24-1089): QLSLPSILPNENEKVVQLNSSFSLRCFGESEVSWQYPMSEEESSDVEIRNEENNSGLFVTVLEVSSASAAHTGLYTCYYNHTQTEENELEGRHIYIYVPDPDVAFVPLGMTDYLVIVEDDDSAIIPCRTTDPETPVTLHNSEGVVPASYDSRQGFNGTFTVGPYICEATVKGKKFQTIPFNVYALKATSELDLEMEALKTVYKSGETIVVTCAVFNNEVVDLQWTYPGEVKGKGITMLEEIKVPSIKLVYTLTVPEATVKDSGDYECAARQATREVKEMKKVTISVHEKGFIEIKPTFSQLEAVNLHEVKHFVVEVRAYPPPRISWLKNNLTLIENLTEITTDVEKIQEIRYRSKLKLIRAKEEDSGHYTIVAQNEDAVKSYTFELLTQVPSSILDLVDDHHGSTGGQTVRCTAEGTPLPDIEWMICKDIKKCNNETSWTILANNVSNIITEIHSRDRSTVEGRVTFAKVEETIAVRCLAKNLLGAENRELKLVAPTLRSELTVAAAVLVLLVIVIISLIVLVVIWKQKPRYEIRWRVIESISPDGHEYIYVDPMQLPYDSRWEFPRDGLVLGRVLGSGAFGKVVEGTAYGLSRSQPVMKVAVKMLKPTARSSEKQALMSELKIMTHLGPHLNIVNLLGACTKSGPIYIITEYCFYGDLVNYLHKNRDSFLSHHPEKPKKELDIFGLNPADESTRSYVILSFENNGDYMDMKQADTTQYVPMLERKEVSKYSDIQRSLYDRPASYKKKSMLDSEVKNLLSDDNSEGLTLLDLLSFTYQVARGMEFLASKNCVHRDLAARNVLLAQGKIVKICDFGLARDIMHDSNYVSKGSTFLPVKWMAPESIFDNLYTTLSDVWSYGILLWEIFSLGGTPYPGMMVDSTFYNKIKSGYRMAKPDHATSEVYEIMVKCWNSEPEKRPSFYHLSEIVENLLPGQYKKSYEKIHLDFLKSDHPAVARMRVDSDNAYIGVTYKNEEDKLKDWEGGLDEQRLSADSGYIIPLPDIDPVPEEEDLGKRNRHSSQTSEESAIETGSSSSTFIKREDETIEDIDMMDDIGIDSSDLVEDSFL
T2 sequence (P10721 26-976): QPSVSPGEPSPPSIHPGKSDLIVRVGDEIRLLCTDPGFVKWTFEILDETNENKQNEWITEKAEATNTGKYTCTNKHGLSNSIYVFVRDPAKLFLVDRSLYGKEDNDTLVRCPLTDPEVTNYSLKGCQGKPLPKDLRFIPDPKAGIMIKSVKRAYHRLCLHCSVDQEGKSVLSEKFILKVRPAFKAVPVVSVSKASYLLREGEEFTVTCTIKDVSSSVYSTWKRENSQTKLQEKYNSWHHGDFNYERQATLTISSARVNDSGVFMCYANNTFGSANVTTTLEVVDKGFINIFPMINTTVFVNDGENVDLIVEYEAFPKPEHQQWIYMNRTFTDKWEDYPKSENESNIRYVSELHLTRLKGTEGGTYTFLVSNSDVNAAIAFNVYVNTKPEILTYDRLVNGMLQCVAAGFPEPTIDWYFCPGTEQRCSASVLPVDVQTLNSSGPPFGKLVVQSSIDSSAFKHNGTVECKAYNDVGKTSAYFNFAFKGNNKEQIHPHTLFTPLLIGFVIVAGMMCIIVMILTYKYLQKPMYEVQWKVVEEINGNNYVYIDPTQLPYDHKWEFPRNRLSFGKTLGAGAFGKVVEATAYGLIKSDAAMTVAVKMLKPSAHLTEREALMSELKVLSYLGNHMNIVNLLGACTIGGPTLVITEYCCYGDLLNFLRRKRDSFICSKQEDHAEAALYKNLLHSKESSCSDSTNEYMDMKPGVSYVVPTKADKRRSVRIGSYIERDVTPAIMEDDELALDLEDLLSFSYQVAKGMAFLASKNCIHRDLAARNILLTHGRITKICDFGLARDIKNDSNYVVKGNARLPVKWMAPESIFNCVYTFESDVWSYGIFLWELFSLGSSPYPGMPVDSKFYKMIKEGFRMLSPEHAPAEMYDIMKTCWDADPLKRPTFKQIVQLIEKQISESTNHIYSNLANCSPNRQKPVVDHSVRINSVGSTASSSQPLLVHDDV

For the compound `COc1cc2nccc(Oc3ccc(NC(=S)NC(=O)c4ccc(C)s4)cc3F)c2cc1OC` [Example 1040, N-{4-[(6,7-Dimethoxy-4-quinolyl)oxy]-3-fluorophenyl}-N′-[(5-methyl-2-thienyl)carbonyl]thiourea], the values for the IC50 on PDGF-Ra and at c-kit (setting [1]) were under 10 nM and 414 nM, respectively.

`CCN(CC)C(=O)NC(=S)Nc1ccc(Oc2ccnc3cc(OC)c(OC)cc23)cc1` [Example 1041, N-{4-[(6,7-Dimethoxy-4-quinolyl)oxy]phenyl}-{[(diethylamino)carbonyl]amino}methanethioamide]: the results for the IC50 on PDGF-Ra and on c-kit (setting [1]) were 12 nM and 98 nM, respectively.

`COc1cc2nccc(Oc3ccc(NC(=S)NC(=O)N(CCCl)CCCl)cc3)c2cc1OC` [Example 1042, N-{4-[(6,7-Dimethoxy-4-quinolyl)oxy]phenyl}-[{[di(2-chloroethyl)amino]carbonyl}amino]methanethioamide]: the IC50 came out at 39 nM at PDGF-Ra and 107 nM against c-kit (c-kit IC50, MO7e cells).

For `COc1cc2nccc(Oc3ccc(NC(=S)NC(=O)N(C(C)C)C(C)C)cc3)c2cc1OC` [Example 1043, N-{4-[(6,7-Dimethoxy-4-quinolyl)oxy]phenyl}-{[(diisopropylamino)carbonyl]amino}methanethioamide], the IC50 worked out at 27 nM on PDGF-Ra and 449 nM at c-kit (setting [1]).

For `COc1cc2nccc(Oc3ccc(NC(=S)NC(=O)N4CCCC4)cc3)c2cc1OC` [Example 1044, N-{4-[(6,7-Dimethoxy-4-quinolyl)oxy]phenyl}-N′-tetrahydro-1H-1-pyrrolylcarbonylthiourea], the IC50 on PDGF-Ra was under 10 nM; on c-kit (setting [1]), 136 nM.

On to `COc1cc2nccc(Oc3ccc(NC(=S)NC(=O)N4CCOCC4)cc3)c2cc1OC` [Example 1045, N-{4-[(6,7-Dimethoxy-4-quinolyl)oxy]phenyl}-N′-morpholinocarbonylthiourea], for which the IC50 at PDGF-Ra is 17 nM; at c-kit (setting [1]), 193 nM.

As for `COc1cc2nccc(Oc3ccc(NC(=S)NC(=O)N(C)c4ccccc4)cc3)c2cc1OC` [Example 1046, N-{4-[(6,7-Dimethoxy-4-quinolyl)oxy]phenyl}-{[(methylanilino)carbonyl]amino}methanethioamide], the IC50 turned out to be 38 nM at PDGF-Ra and 202 nM on c-kit (setting [1]).

Consider `CCN(CC)C(=O)NC(=S)Nc1ccc(Oc2ccnc3cc(OC)c(OC)cc23)c(Cl)c1` [Example 1048, N-{3-Chloro-4-[(6,7-dimethoxy-4-quinolyl)oxy]phenyl}-{[(diethylamino)carbonyl]amino}methanethioamide], for which the IC50 is under 10 nM on PDGF-Ra and 250 nM at c-kit (setting [1]).

Take `COc1cc2nccc(Oc3ccc(NC(=S)NC(=O)N(C(C)C)C(C)C)cc3Cl)c2cc1OC` [Example 1050, N-{3-Chloro-4-[(6,7-dimethoxy-4-quinolyl)oxy]phenyl}-{[(diisopropylamino)carbonyl]amino}methanethioamide]: the results for the IC50 at PDGF-Ra and at c-kit (setting [1]) were 23 nM and 579 nM, respectively.

`COc1cc2nccc(Oc3ccc(NC(=S)NC(=O)N4CCCC4)cc3Cl)c2cc1OC` [Example 1051, N-{3-Chloro-4-[(6,7-dimethoxy-4-quinolyl)oxy]phenyl}-N′-tetrahydro-1H-1-pyrrolylcarbonylthiourea]: the IC50 at PDGF-Ra came to 14 nM; on c-kit (setting [1]), 418 nM.

Regarding `COc1cc2nccc(Oc3ccc(NC(=S)NC(=O)N4CCOCC4)cc3Cl)c2cc1OC` [Example 1052, N-{3-Chloro-4-[(6,7-dimethoxy-4-quinolyl)oxy]phenyl}-N′-morpholinocarbonylthiourea], the IC50 came out at 21 nM on PDGF-Ra and 408 nM at c-kit (setting [1]).

Consider `COc1cc2nccc(Oc3ccc(NC(=S)NC(=O)N4c5ccccc5CCc5ccccc54)cc3Cl)c2cc1OC` [Example 1054, N-{3-Chloro-4-[(6,7-dimethoxy-4-quinolyl)oxy]phenyl}-N′-[10,11-dihydro-5H-dibenzo(b,f)azepin-5-ylcarbonyl]thiourea], for which the IC50 on PDGF-Ra was 27 nM. In addition, at c-kit, the inhibition at 1 µM worked out at 19%.

As to `COc1cc2nccc(Oc3ccc(NC(=S)NC(=O)C4CC4c4ccccc4)cc3)c2cc1OC` (stereo not drawn) [Example 1055, N-{4-[(6,7-Dimethoxy-4-quinolyl)oxy]phenyl}-N′-[(2-phenylcyclopropyl)carbonyl]thiourea], the values for the IC50 on PDGF-Ra and on c-kit (setting [1]) were 16 nM and 312 nM, respectively.

For the compound `COc1cc2nccc(Oc3ccc(NC(=S)NC(=O)C4CC4)cc3Cl)c2cc1OC` [Example 1058, N-{3-Chloro-4-[(6,7-dimethoxy-4-quinolyl)oxy]phenyl}-N′-cyclopropylcarbonylthiourea], the IC50 at PDGF-Ra was determined as 8 nM. Besides, the inhibition at 1 µM on c-kit turned out to be 21%.

Take `COc1cc2ncnc(Oc3ccc(NC(=S)NC(=O)C4CC4c4ccccc4)cc3)c2cc1OC` (stereo not drawn) [Example 1060, N-{4-[(6,7-Dimethoxy-4-quinazolinyl)oxy]phenyl}-N′-[(2-phenylcyclopropyl)carbonyl]thiourea]: the IC50 at PDGF-Ra was 39 nM. In addition, at c-kit, the inhibition at 1 µM came out at 30%.

Take `CCOCCC(=O)NC(=S)Nc1ccc(Oc2ccnc3cc(OC)c(OC)cc23)cc1` [Example 1065, N-{4-[(6,7-Dimethoxy-4-quinolyl)oxy]phenyl}-N′-(3-ethoxypropanoyl)thiourea]: the IC50 was 19 nM at PDGF-Ra and 566 nM at c-kit (setting [1]).

For the compound `CCOCCC(=O)NC(=S)Nc1ccc(Oc2ccnc3cc(OC)c(OC)cc23)c(Cl)c1` [Example 1071, N-{3-Chloro-4-[(6,7-dimethoxy-4-quinolyl)oxy]phenyl}-N′-(3-ethoxypropanoyl)thiourea], at PDGF-Ra, the IC50 is over 100 nM and the inhibition at 0.1 µM is 17%. At c-kit, the inhibition at 1 µM amounted to 0%.

For `CCCCC(C)C(=O)NC(=S)Nc1ccc(Oc2ccnc3cc(OC)c(OC)cc23)cc1` (stereo not drawn) [Example 1074, N-{4-[(6,7-Dimethoxy-4-quinolyl)oxy]phenyl}-N′-(2-methylhexanoyl)thiourea], the figures for the IC50 on PDGF-Ra and at c-kit (setting [1]) were under 10 nM and 289 nM, respectively.

Take `CCCCC(C)C(=O)NC(=S)Nc1ccc(Oc2ccnc3cc(OC)c(OC)cc23)c(Cl)c1` (stereo not drawn) [Example 1077, N-{3-Chloro-4-[(6,7-dimethoxy-4-quinolyl)oxy]phenyl}-N′-(2-methylhexanoyl)thiourea]: the IC50 at PDGF-Ra was found to be 48 nM; on c-kit (setting [1]) it was 379 nM.

For the compound `COc1cc2nccc(Oc3ccc(NC(=S)NC(=O)c4ccccc4C)c(Cl)c3)c2cc1OC` [Example 1101, N-{2-Chloro-4-[(6,7-dimethoxy-4-quinolyl)oxy]phenyl}-N′-(2-methylbenzoyl)thiourea], at PDGF-Ra, the half-inhibitory concentration (IC50) is over 100 nM and the inhibition at 0.1 µM is 37%. Besides, the inhibition at 1 µM at c-kit was found to be 26%.

`COc1cc2nccc(Oc3ccc(NC(=S)NC(=O)c4ccc(C)cc4)c(Cl)c3)c2cc1OC` [Example 1102, N-{2-Chloro-4-[(6,7-dimethoxy-4-quinolyl)oxy]phenyl}-N′-(4-methylbenzoyl)thiourea]: at PDGF-Ra, the IC50 is over 100 nM and the inhibition at 0.1 µM was 38%. Besides, the inhibition at 1 µM on c-kit is 11%.

On to `COc1cc2nccc(Oc3ccc(NC(=S)NC(=O)c4ccccc4OC)c(Cl)c3)c2cc1OC` [Example 1103, N-{2-Chloro-4-[(6,7-dimethoxy-4-quinolyl)oxy]phenyl}-N′-(2-methoxybenzoyl)thiourea], for which, on PDGF-Ra, the IC50 is over 100 nM and the inhibition at 0.1 µM worked out at 25%. Besides, at c-kit, the inhibition at 1 µM was 3%.

What is called IC50 is the midpoint of a concentration-inhibition curve. By inhibition is commonly meant the drop in the measured response relative to a control, in per cent.
